In US20070197543A1, “Use of derivatives of 2, 5-dihydroxyb enzene-sulphonic acids in the elaboration of a medicinal product to enhance the effect of other drugs used for the treatment of erectile dysfunction” (Laboratorios del Dr. Esteve, S.A., priority 2001, published 2007):

Columns and labels:
[1] = test system: resistance arteries of the human penis; assay: Relaxation of noradrenaline-contracted human penile resistance arteries induced by sodium nitroprussiate (myograph); details: 10 μM; arteries contracted with 1 μM noradrenaline; FIG. 1
Method: (§1) To study the enhancing effect of medicinal products used to facilitate penile erection in man a series of studies were carried out of the resistance arteries of the human penis, obtained from patients submitted to penile prosthesis implantation.
(§2) Specimens of human cavernous bodies of the penis were obtained from patients with impotence while these were intervened for prosthetic implantation, as described previously (Gupta et al.; Br. J. Pharmacol., 116: 2201, 1995). The tissues were deposited in M-400 solution (pH 7.4; 400 mOsm/kg. Composition in w/v: 4.19% manitole, 0.2% KH2PO4, 0.97% K2HPO4.3 H2O, 0.11% KCl and 0.08% NaHCO3) at 4° C. at the moment of explant and were transported to the laboratory to be used within the following 16 h.
(§3) The resistance arteries of the penis, helicine arteries (with a luminal diameter of 150-400 μm), which are terminal branches of the deep arteries of the penis, were dissected carefully removing the surrounding trabecular tissue and were cut into 2 mm long arterial segments that were arranged on two wires of 40 μm diameter in a Halpern-Mulvany myograph (J.P. Trading, Aarhus, Denmark) to record […]. […] The arteries were contracted with 1 μM of noradrenaline and their relaxation responses were assessed after adding to the cavities increasing amounts of the different compounds. […]

[2] = test system: resistance arteries of the human penis; assay: Relaxation of noradrenaline-contracted human penile resistance arteries induced by sildenaphyl (myograph); details: 10 μM; arteries contracted with 1 μM noradrenaline; FIG. 2
Method: as §1, §2, §3

[3] = test system: nitrergic terminations in resistance arteries of the human penis; assay: Relaxation of human penile resistance arteries induced by transmural electrical stimulation of nitrergic terminations (myograph)
Method: as §1, §2, §3

[4] = patients; variable in different patients; cited from earlier work

SMILES	effect on the relaxation produced by different concentrations of sodium nitroprussiate (SNP) [1]	effect on the relaxation produced by different concentrations of sildenaphyl [2]	effect on the effects of 10 nM of sildenaphyl on the relaxation produced by electrical stimulation ([3]; 10 μM combined with 10 nM sildenaphyl, increasing frequencies, FIG. 4)	effect on the relaxation produced by electrical stimulation at increasing frequencies of the nitrergic terminations ([3]; 10 μM, TES 0.5, 1, 2 and 6 Hz, FIG. 3)	therapeutic response [4] [%]
O=S(=O)([O-])c1cc(O)ccc1O.O=S(=O)([O-])c1cc(O)ccc1O.[Ca+2] [Calcium dobesylate, Calcium 2,5-dihidroxybenzenosulphonate]	increases, in a statistically significant manner, the relaxation	increases, in a statistically significant manner, the relaxation	increases, in a statistically significant manner, the effects of 10 nM of sildenaphyl	increases, in a statistically significant manner, the relaxation	
CCCc1nn(C)c2c(=O)[nH]c(-c3cc(S(=O)(=O)N4CCN(C)CC4)ccc3OCC)nc12 [sildenaphyl]					≤ 50
